Reference: patent publication US20100035853A1, “METHOD FOR PREVENTING OR TREATING CISPLATIN-INDUCED NEPHROTOXICITY” (HYOGO COLLEGE OF MEDICINE, priority 2008, published 2010)

Tests used:
[1] = Survival of wild-type and IL-18KO mice after Cisplatin; format: in vivo, mouse; settings: Cisplatin 20 mg/kg i.p.; for dead mice: day 2; for survival rate: day 3
Experimental: Open and closed symbols show wild-type and IL-18KO mice, respectively.
(§1) As a control, mice were treated with a similar volume of saline.

[2] = Serum IL-18 and other cytokines after Cisplatin treatment (ELISA); format: in vivo, mouse; settings: wild-type BALB/c mice, Cisplatin 20 mg/kg i.p.
Experimental: Levels of serum IL-18 were measured using the specific ELISA kit.
IL-18 concentrations in serum were measured by ELISA purchased from Medical and Biological Laboratories (Tokyo, Japan) in accordance with the manufactures' instructions. Other cytokines such as TNF-α, IFN-γ, IL-1β, IL-10 and MIP-1α were measured respective ELISA kits purchased from R&D Systems Inc (USA).

[3] = Accumulation of Cisplatin in the kidney (platinum ion content of kidney homogenate); format: in vivo, mouse; settings: wild-type vs IL-18KO mice, Cisplatin 20 mg/kg i.p.
Experimental: Accumulations of Cisplatin in the kidney were measured as platinum ion content in the kidney homogenate. Open and closed columns show wild-type and IL-18KO mice, respectively.

aldosterone receptor [4] = molecular target: T1, aldosterone receptor (Mus musculus, UniProt Q8VII8); assay: Effect of Eplerenone on Cisplatin-induced increase in plasma aldosterone in wild-type mice; format: in vivo; set-up: Wild-type male BALB/c mice (WT mice) aged 9-10 weeks-old were purchased; from tissue; host or cells: whole animal: wild-type male BALB/c mice dosed orally, with read-outs in plasma; settings: Eplerenone 20 mg/kg orally, observation for 3 days, significant at day 1 and later
T1 sequence (Q8VII8 1-978): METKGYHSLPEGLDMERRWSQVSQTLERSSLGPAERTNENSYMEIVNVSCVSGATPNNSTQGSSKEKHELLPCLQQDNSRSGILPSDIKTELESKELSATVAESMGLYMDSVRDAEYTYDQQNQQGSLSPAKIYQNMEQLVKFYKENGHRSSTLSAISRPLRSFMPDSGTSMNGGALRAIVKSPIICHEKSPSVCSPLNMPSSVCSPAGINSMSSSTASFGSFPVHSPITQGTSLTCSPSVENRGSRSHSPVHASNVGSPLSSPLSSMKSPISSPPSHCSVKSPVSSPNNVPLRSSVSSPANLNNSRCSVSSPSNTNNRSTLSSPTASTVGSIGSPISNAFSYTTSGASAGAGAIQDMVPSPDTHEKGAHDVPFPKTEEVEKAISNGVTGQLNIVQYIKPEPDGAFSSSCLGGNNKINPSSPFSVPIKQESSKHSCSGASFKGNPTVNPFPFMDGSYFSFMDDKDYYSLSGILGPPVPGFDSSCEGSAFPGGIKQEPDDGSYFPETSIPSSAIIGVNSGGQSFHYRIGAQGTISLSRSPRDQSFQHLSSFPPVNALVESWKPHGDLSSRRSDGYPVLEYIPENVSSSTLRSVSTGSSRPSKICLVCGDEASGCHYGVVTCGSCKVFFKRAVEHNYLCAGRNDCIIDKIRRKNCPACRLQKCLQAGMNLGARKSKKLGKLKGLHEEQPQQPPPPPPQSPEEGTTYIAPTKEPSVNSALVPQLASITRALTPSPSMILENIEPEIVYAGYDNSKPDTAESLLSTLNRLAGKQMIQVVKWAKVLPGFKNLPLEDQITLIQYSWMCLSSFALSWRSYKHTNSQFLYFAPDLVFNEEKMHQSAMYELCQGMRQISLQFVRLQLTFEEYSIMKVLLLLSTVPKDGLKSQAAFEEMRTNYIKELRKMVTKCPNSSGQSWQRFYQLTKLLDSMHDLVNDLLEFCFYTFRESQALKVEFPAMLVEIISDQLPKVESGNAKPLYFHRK
Experimental: (§2) Open and closed columns show vehicle- and Eplerenone-treated mice, respectively. […] NS; not significant.
(§3) Blood urea nitrogen (BUN) and creatinine were enzymatically measured by HITACHI 7180 auto-analyzer. Aldosterone level was measured by radioimmuno assay. All of these assays were performed by SRL, Inc (Tokyo, Japan).

aldosterone receptor [5] = molecular target: T1, aldosterone receptor
Experimental: as §2, §3

[6] = Induction of plasma aldosterone by recombinant IL-18 in wild-type mice; format: in vivo
Experimental: Wild-type mice were treated with various doses of IL-18 (0.2, 0.6 and 2 mg/mouse), then blood samples were collected at 5 hours after IL-18 treatment. […] NS; not significant.
as §3

[7] = Exogenous recombinant mouse IL-18 in Cisplatin-treated IL-18KO mice: plasma BUN and creatinine; format: in vivo; settings: IL-18KO mice supplemented with rmIL-18 (2 μg/body), Cisplatin 20 mg/kg i.p.
Experimental: Plasma levels of BUN and creatinine were measured as shown in Materials and Methods. Open, closed and grey-colored columns show wild-type, IL-18KO and IL-18-supplemented IL-18KO mice, respectively. […] NS; not significant.
as §1, §3

[8] = wild-type mice, Eplerenone 20 mg/kg orally 30 min pre, day 1, day 2, Cisplatin 20 mg/kg i.p.

N.N.[Cl][Pt][Cl] [Cisplatin]
dead mice ([1]; IL-18KO mice): no mouse was dead
survival rate ([1]; IL-18KO mice): 92.9%
dead mice ([1]; wild-type mice): six of fourteen
survival rate ([1]; wild-type mice): 28.6%
levels of IL-18 in the circulation ([2]; around day 3): over 1000 pg/ml
other cytokines (TNF-α, IFN-γ, IL-1β, IL-10, MIP-1α) in serum ([2]; when IL-18 was at maximal levels (data not shown)): undetectable
quantity of platinum ion in the kidney ([3]; day 1): almost equivalent
rate of excretion of platinum ion from the kidney ([3]; day 2 and 3): much rapid in IL-18KO mice than in wild-type mice

COC(=O)[C@@H]1CC2=CC(=O)CC[C@]2(C)[C@@]23O[C@@H]2C[C@@]2(C)[C@@H](CC[C@@]24CCC(=O)O4)[C@H]13 [Eplerenone]
increase in plasma aldosterone level induced by Cisplatin (aldosterone receptor [4]): completely inhibited
inhibition of increased creatinine level vs vehicle (aldosterone receptor [5]; day 1 and later after Cisplatin treatment): significant inhibition
inhibition of increased BUN level vs vehicle (aldosterone receptor [5]; day 2 and 3 after Cisplatin treatment): Significant inhibition
renal toxicity of Cisplatin (summary statement) (aldosterone receptor [5]; wild-type mice): strongly suppressed
lethality of Cisplatin (aldosterone receptor [5]; wild-type mice treated with Eplerenone (data not shown)): almost completely suppressed
elevation of plasma BUN (aldosterone receptor [5]; [8]): almost completely suppressed
elevation of plasma creatinine (aldosterone receptor [5]; [8]): almost completely suppressed

B1: rmIL-18: Recombinant mouse IL-18 donated by GlaxoSmithKline Pharmaceuticals (protein, UniProt P70380 36-192, looked up)
Interleukin-18: NFGRLHCTTAVIRNINDQVLFVDKRQPVFEDMTDIDQSASEPQTRLIIYMYKDSEVRGLAVTLSVKDSKMSTLSCKNKIISFEEMDPPENIDDIQSDLIFFQKRVPGHNKMEFESSLYEGHFLACQKEDDAFKLILKKKDENGDKSVMFTLTNLHQS
renal toxicity of exogenously given IL-18 alone ([6]; wild-type mice (data not shown)): did not cause any renal toxicity
dose of IL-18 giving significant induction of plasma aldosterone ([6]; wild-type mice, 5 hours after IL-18 treatment): over 0.6 μg
plasma levels of aldosterone ([6]; wild-type mice, various doses of IL-18, 5 hours after treatment): augmented the plasma levels of aldosterone in a dose-dependent manner
plasma levels of creatinine induced by Cisplatin ([7]; day 1 to 3): significantly increased
plasma levels of BUN ([7]; day 3): increased to almost equivalent levels with wild-type mice
